Results taken from PubChem BioAssay (NCI).
Where “and” joins values, the source holds several entries; their conditions need not be identical. Identical values can stand only once.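 Exposure lasted 48 hours, with cells grown in 96-well plates and compounds tested at five concentrations. GI50 is the concentration that inhibits growth by half. Definition used: TGI = concentration required for complete inhibition of growth.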

What was measured:
Assay in all cases: inhibition of tumour cell growth, NCI panel, 48 h
T-47D breast = tested on: T-47D breast
OVCAR-3 ovarian = tested on: OVCAR-3 ovarian
MDA-MB-231 breast = tested on: MDA-MB-231 breast
NCI-H23 lung = tested on: NCI-H23 lung
MOLT-4 leukemia = tested on: MOLT-4 leukemia
RPMI-8226 leukemia = tested on: RPMI-8226 leukemia
HOP-62 NSCLC = tested on: HOP-62 NSCLC
SK-MEL-5 melanoma = tested on: SK-MEL-5 melanoma
HL-60(TB) leukemia = tested on: HL-60(TB) leukemia
UACC-257 melanoma = tested on: UACC-257 melanoma

| Structure (SMILES) | GI50 (T-47D breast) | TGI (T-47D breast) | GI50 (OVCAR-3 ovarian) | TGI (OVCAR-3 ovarian) [nM] | GI50 (MDA-MB-231 breast) | TGI (MDA-MB-231 breast) | GI50 (NCI-H23 lung) | TGI (NCI-H23 lung) [nM] | GI50 (MOLT-4 leukemia) | TGI (MOLT-4 leukemia) [nM] | GI50 (RPMI-8226 leukemia) | TGI (RPMI-8226 leukemia) | GI50 (HOP-62 NSCLC) | TGI (HOP-62 NSCLC) [nM] | GI50 (SK-MEL-5 melanoma) | TGI (SK-MEL-5 melanoma) | GI50 (HL-60(TB) leukemia) | TGI (HL-60(TB) leukemia) | GI50 (UACC-257 melanoma) | TGI (UACC-257 melanoma) |
| --- | --- | --- | --- | --- | --- | --- | --- | --- | --- | --- | --- | --- | --- | --- | --- | --- | --- | --- | --- | --- |
| CCN1C(=O)N(CC)C2C1NN=c1s/c(=C\c3ccc[nH]3)c(=O)n12 (stereo unspecified) | 400 nM | > 100000 nM | 279 nM | 948 | 3010 nM | > 100000 nM | 1340 nM | > 100000 | 543 nM | > 100000 | 481 nM | > 100000 nM | 603 nM | > 100000 | 309 nM | > 41500 nM | 285 nM | 1400 nM | > 100000 nM | > 100000 nM |
| Brc1cccc(-c2cc(-c3ccc4nccnc4c3)[nH]n2)c1 | 1240 nM | > 250000 nM | 485 nM |  | 2940 nM | 23700 nM | 1330 nM | > 250000 | 1520 nM | > 145000 | 865 nM | 76400 nM | 1020 nM | > 250000 | 783 nM | 11700 nM | 519 nM | 1750 nM |  | > 250000 nM |
| CCN(CC)CCCC(C)Nc1c(-c2ccccc2)cnc2cc(Cl)ccc12 (stereo unspecified) | 4440 nM | 16200 nM | 12500 nM | 26500 | 3500 nM | 13200 nM | 11000 nM | 28500 | 4380 nM | 31900 | 3490 nM | 17100 nM | 9620 nM | 22900 | 1740 nM | 3640 nM | 5290 nM | 23800 nM | 2460 nM | 6280 nM |
| Nc1n[nH]c2ccc([C@@H]3Nc4cc5[nH]ncc5cc4[C@H]4C5CCC(C5)[C@@H]34)cc12 (stereo partly specified) | 498 nM | 79800 nM | 381 nM | 13300 | 764 nM | 98100 nM | 472 nM | > 71700 | 442 nM | > 100000 | 354 nM | 12600 nM | 689 nM | 98000 | 493 nM | 6570 nM | 298 nM | 2240 nM | 14900 nM | > 78400 nM |
| NCCC(=O)NC(Cc1cnc[nH]1)C(=O)O (stereo unspecified) |  | > 100000 nM |  | > 100000 |  | > 100000 nM |  | > 100000 |  | > 100000 |  | > 100000 nM |  | > 100000 |  | > 100000 nM |  | > 100000 nM |  | > 100000 nM |
| COc1cc(/C=C/[N+](=O)[O-])cc(OC)c1OC | 2000 nM | 9600 nM | 2810 nM | 6630 | 1870 nM | 4860 nM | 2410 nM | 6440 | 4560 nM | 34100 | 3140 nM | 8590 nM | 3340 nM | 13600 | 1550 nM | 3000 nM | 4950 nM | 55900 nM | 2460 nM | 9830 nM |
| C[C@@H]1COCCN1c1cc(-c2ccnn2C)c2ccnc(-c3ccn[nH]3)c2n1 | 159 nM and 384 nM | 790 nM and 2810 nM | 223 nM and 406 nM |  | 223 nM and 386 nM | 10700 nM and > 69900 nM | 30.3 nM and 75 nM |  | 31.9 nM and 75.1 nM | 9080 | 177 nM and 202 nM | 3010 nM and 5400 nM | 112 nM and 216 nM | 1940 | 222 nM and 286 nM | 766 nM and 2520 nM | 106 nM and 194 nM | 660 nM and 3160 nM | 264 nM and 721 nM | 2810 nM and 6900 nM |
